According to PubChem BioAssay (NCI):
Values joined by “and” are separate entries in the source; they are usually repeats but may differ in a detail not shown here. Identical values can stand only once.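 Assay format: 96-well plates, 48-hour exposure. Abbreviation: GI50, concentration required for 50% inhibition of growth. TGI: total growth inhibition.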

Tests used:
Experiment in all cases: NCI tumour cell line growth inhibition, 48 h
SF-539 CNS = tested on: SF-539 CNS
HOP-62 NSCLC = tested on: HOP-62 NSCLC
NCI-H23 lung = tested on: NCI-H23 lung
HCT-15 colon = tested on: HCT-15 colon
HOP-92 NSCLC = tested on: HOP-92 NSCLC
SNB-19 CNS = tested on: SNB-19 CNS
MOLT-4 leukemia = tested on: MOLT-4 leukemia
MDA-MB-231 breast = tested on: MDA-MB-231 breast
HT29 colon = tested on: HT29 colon
COLO 205 colon = tested on: COLO 205 colon

| SMILES | GI50 (SF-539 CNS) | TGI (SF-539 CNS) [µM] | GI50 (HOP-62 NSCLC) [µM] | TGI (HOP-62 NSCLC) [µM] | GI50 (NCI-H23 lung) [µM] | TGI (NCI-H23 lung) [µM] | GI50 (HCT-15 colon) | TGI (HCT-15 colon) [µM] | GI50 (HOP-92 NSCLC) [µM] | TGI (HOP-92 NSCLC) [µM] | GI50 (SNB-19 CNS) [µM] | TGI (SNB-19 CNS) [µM] | GI50 (MOLT-4 leukemia) [µM] | TGI (MOLT-4 leukemia) [µM] | GI50 (MDA-MB-231 breast) | TGI (MDA-MB-231 breast) [µM] | GI50 (HT29 colon) | TGI (HT29 colon) [µM] | GI50 (COLO 205 colon) | TGI (COLO 205 colon) [µM] |
| --- | --- | --- | --- | --- | --- | --- | --- | --- | --- | --- | --- | --- | --- | --- | --- | --- | --- | --- | --- | --- |
| O=C1NN(C(=O)c2ccccc2)C(c2ccc(Cl)c(Cl)c2)=C/C1=C\c1ccccc1[N+](=O)[O-] | 2.47 µM | > 6.75 | 3.44 | > 6.75 | 1.04 | 6.5 | 0.923 µM | 2.99 | 1.43 | > 6.75 | 0.339 | > 6.75 | 2.04 | > 6.75 | > 6.75 µM | > 6.75 | 2.3 µM | > 6.75 | 1.52 µM | 3.49 |
| COc1cccc(C2SC(C)C(=O)N2NC(=O)C(O)c2ccccc2)c1 (stereo not given) | > 100 µM | > 100 | > 100 | > 100 | > 100 | > 100 | > 100 µM | > 100 | > 100 | > 100 | > 100 | > 100 | > 100 | > 100 | > 100 µM | > 100 | > 100 µM | > 100 | > 100 µM | > 100 |
| C[C@]12CC[C@@H]3c4ccc(O)cc4CC[C@H]3[C@@H]1CC(Cc1ccccc1)(Cc1ccccc1)C2=O | 18.6 µM | 36.8 | 17.7 | 32.9 | 14.3 | 28.2 | 13.9 µM | 28.7 | 2.16 | 9.77 | 18 | 34.5 | 9.11 | 32.8 | 14.1 µM | 28.5 | 6.04 µM | 20.6 | 13.4 µM | 31.9 |
| O=C1/C(=C/c2ccc(Cl)cc2)N=C(c2ccccc2)N1c1cc(C(F)(F)F)ccc1Cl | 18.1 µM | 44.3 | 15 | 42.8 | 34.4 | > 100 | 18.9 µM | 86.6 | 20.3 | 58.5 | 36.4 | > 100 | 15.5 | 51.2 | 16 µM | 55.8 | 24.1 µM | 73.5 | 17.5 µM | 40.7 |
| COc1nc2c(c(=O)n1C)CN(c1ccccc1)C(=O)CN2C | > 100 µM | > 100 | > 100 | > 100 | 95.1 | > 100 | 56.7 µM | > 100 | 0.852 | 55.1 | 60.4 | > 100 | 33.9 | > 100 | 41.7 µM | > 100 | 60.9 µM | > 100 | 40.6 µM | > 100 |
| C[C@]1(c2nc3c(C(N)=O)cccc3[nH]2)CCCN1 | 79.7 µM and > 100 µM | > 100 | > 100 | > 100 | > 100 | > 100 | 54.4 µM and > 100 µM | > 100 | > 67.9 | > 100 | > 100 | > 100 | > 100 | > 100 | 98.3 µM and > 100 µM | > 100 | 61.5 µM and > 100 µM | > 100 | 72.8 µM and > 100 µM | > 100 |
| Cn1cc(-c2ncnc3ccc(-c4cnc(Cl)c(NS(C)(=O)=O)c4)cc23)c2ccccc21 | 0.656 µM | 4.3 | 0.791 | > 22.6 | 0.903 | > 52 | 0.447 µM | > 71.1 | 0.0408 | 0.634 | 1.67 | 23.4 | 0.491 | 4.89 | 1.84 µM | 26.4 | 0.541 µM | > 100 | 0.829 µM | 13.1 |
| [Mn+3].[O-][Cl+3]([O-])([O-])O.[O-]c1ccccc1C=NCCN1CC1.[O-]c1ccccc1C=NCCN1CC1 | 30.6 µM | > 100 | 28.6 | > 100 | 15.4 | 52.8 | 4.15 µM | 18.3 | 94.8 | > 100 | 44.6 | > 100 | 5.57 | 25.4 | 20.9 µM | > 100 | 20.2 µM | 44.1 | 28.9 µM | 97.3 |
| CC1(C)CC[C@]2(C(=O)NCCNCCN)CC[C@]3(C)C(=CC[C@@H]4[C@@]5(C)CCC(=O)C(C)(C)[C@@H]5CC[C@]43C)[C@@H]2C1 | 1.72 µM | 3.11 | 2.05 | 4.13 | 1.9 | 3.71 | 1.79 µM | 3.29 | 1.47 | 4.4 | 1.73 | 3.23 | 2.44 | 6.15 | 1.82 µM | 3.35 | 1.96 µM | 4.43 | 2.06 µM | 4.18 |
